Active and inactive are the calls of the source.
Columns and labels:
[1] = non-specific 3'UTR reporter inhibition in Clone20-Shn3RL – cell-based, Renilla luciferase, cherry-picked, counter-screen for Shn3 inhibitor project, dose response (AID 624133); type: functional
[2] = cells; type: functional, cell-based
[3] = Luminescence Cell-Based Dose Response HTS to Identify Inhibitors of 5'UTR Stem-Loop Driven Prion Protein mRNA Translation in H4 Neuroglioblastoma Cells. [Related pubchem assays: 1827 (Project Summary), 1813 (Primary HTS)]; type: functional
[4] = cells; type: functional, cell-based; remark: listed apart in the source
[5] = target: T1, Short transient receptor potential channel 4 (Mus musculus, UniProt Q9QUQ5); assay: block of DAMGO-driven TRPC4 calcium entry – cell-based, HEK293 TRPC4/mu-opioid, Fluo-4 calcium, dose response (AID 434942); type: functional;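 also: potency of inhibitors blocking the TRPC4 calcium response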
T1 sequence (Q9QUQ5 whole entry): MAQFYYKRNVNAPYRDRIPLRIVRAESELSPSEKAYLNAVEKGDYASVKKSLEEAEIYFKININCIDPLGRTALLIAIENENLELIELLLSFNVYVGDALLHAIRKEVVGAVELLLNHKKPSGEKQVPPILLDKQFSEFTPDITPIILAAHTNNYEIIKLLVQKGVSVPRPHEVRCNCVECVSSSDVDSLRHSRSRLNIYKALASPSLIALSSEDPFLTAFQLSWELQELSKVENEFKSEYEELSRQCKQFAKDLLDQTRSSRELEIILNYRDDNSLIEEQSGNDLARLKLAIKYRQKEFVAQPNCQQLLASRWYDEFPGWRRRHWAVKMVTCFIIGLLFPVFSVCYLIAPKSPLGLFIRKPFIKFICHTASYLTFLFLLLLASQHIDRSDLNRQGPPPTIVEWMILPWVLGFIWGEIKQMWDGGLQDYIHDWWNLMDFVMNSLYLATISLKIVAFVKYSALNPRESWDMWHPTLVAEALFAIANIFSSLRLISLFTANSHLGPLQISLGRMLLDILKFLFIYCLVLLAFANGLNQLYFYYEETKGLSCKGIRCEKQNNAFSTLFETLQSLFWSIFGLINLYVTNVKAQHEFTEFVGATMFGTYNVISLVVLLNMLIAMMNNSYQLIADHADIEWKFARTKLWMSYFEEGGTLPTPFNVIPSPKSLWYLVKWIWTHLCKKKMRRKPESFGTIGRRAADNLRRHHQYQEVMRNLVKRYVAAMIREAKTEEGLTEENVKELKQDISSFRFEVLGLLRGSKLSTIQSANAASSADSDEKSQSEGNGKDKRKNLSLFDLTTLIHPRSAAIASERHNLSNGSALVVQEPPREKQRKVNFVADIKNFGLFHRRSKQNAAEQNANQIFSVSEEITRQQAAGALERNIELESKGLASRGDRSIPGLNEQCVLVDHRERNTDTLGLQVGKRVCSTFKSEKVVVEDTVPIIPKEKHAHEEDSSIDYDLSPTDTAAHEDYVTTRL

[6] = target: Nonstructural protein 1 (Influenza A virus, UniProt Q194T2); type: functional, Influenza A virus (A/California/07/2009(H1N1))
[7] = target: T2, Polyadenylate-binding protein 1 (Homo sapiens, UniProt P11940); assay: MLLE binding blockers, Cy5 peptide tracer – biochemical, fluorescence polarization, Cy5-PAM2 peptide, secondary, miRNA deadenylation inhibitor project, dose response (AID 602260); type: functional; conditions: read-out: IC50_Mean
[8] = target: T2, Polyadenylate-binding protein 1; assay: MLLE domain peptide-binding blockers, IC50 – biochemical, fluorescence polarization, FITC-PAM2 peptide, dose response (AID 602259); type: functional; conditions: read-out: IC50_Mean
[9] = tested on: Streptococcus sp. 'group A'; assay: Streptococcus pyogenes SK(-)GAS viability under kanamycin – luminescence, BacTiterGlo, confirmation, counter-screen for streptokinase expression inhibitor project, dose response (AID 1900); type: functional, organism-based
[10] = target: T3, Streptokinase A (Streptococcus pyogenes serotype M1, UniProt P10520); assay: viability-normalized secreted streptokinase activity reduction – plasminogen activation absorbance, OD405, dose response (AID 1914); type: functional, Streptococcus pyogenes M1 GAS;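 also: secreted streptokinase activity via plasminogen activation per viability signal from cell pellet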
T3 sequence (P10520 whole entry): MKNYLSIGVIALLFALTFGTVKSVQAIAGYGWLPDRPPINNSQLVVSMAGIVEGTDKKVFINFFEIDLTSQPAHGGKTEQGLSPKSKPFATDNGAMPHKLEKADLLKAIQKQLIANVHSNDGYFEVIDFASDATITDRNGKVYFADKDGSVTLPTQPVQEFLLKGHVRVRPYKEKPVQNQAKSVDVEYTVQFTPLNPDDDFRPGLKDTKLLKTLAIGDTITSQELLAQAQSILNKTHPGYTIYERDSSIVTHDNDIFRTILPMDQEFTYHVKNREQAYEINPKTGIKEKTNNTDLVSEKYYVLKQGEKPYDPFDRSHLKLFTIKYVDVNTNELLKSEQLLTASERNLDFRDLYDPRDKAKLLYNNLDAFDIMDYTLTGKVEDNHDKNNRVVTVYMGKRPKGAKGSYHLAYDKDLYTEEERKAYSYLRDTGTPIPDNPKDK

[11] = tested on: Streptococcus; assay: GAS UMAA2166 growth inhibition – luminescence, BacTiterGlo, counter-screen for streptokinase expression inhibitor project, dose response (AID 1915); type: functional, organism-based;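 also: potency for reduction of bacterial viability or growth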
[12] = P. falciparum Dd2 growth inhibitors, dose response, SYBR Green, cherry-picked samples (AID 1159567); type: functional, cell-based
[13] = cells; type: functional
[14] = target: T4, Ubiquitin-conjugating enzyme E2 N (Homo sapiens, UniProt P61088); type: functional;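 also: Dose-response confirmation in a TR-FRET assay detecting UBC13-driven polyubiquitin chain formation, inhibition measured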
T4 sequence (P61088 whole entry): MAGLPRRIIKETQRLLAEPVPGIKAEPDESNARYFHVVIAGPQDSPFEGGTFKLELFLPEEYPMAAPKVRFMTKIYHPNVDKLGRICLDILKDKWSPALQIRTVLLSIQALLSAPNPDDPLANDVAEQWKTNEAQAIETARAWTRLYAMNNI

[15] = viability of uninfected HEp-2 cells – cell-based, HTS, cytotoxicity control for RSV inhibitor project, dose response (AID 2410); type: functional; conditions: human respiratory syncytial virus
[16] = target: T5, Rac GTPase-activating protein 1 (Homo sapiens, UniProt Q9H0H5); assay: blockers of MgcRacGAP-driven Rac1 GTP hydrolysis – biochemical, ADP Hunter fluorescence, primary and confirmatory, confirmation (AID 624330); type: functional
T5 sequence (Q9H0H5 whole entry): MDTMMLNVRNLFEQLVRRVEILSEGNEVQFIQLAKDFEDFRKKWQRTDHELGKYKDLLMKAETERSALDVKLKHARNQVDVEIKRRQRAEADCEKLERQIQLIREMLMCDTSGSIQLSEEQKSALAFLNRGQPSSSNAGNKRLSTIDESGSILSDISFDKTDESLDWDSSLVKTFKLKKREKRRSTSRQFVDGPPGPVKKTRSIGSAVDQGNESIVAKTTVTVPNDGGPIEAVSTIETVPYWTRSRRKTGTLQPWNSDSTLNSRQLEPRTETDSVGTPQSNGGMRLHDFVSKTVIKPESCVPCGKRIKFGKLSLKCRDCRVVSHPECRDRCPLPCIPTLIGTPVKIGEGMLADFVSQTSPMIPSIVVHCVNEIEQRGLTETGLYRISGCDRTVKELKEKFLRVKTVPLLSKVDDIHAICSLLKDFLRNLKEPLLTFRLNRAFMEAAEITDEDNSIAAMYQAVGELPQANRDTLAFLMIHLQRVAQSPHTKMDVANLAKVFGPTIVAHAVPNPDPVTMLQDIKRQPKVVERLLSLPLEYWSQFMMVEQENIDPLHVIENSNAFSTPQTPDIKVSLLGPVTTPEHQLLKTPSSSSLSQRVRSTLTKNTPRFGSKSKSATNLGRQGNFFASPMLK

T2 sequence (P11940 whole entry, the tested form may be a part): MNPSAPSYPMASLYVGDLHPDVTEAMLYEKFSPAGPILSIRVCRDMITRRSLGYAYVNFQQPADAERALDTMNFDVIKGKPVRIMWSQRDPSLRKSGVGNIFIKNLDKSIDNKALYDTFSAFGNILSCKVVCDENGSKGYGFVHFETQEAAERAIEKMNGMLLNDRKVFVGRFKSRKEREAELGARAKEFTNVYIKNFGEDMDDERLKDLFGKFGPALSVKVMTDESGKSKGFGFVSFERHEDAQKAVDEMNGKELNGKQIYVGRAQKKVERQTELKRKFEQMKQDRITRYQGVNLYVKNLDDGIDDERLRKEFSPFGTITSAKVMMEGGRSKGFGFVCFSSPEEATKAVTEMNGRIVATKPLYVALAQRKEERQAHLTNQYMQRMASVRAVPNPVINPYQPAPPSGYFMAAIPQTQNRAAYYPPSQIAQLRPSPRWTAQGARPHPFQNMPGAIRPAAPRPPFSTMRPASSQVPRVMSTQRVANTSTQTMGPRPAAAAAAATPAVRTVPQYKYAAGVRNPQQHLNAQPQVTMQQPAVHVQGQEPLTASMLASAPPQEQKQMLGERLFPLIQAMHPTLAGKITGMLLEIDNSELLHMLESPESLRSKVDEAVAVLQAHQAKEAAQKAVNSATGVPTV
Sequence of Nonstructural protein 1 (Q194T2 whole entry): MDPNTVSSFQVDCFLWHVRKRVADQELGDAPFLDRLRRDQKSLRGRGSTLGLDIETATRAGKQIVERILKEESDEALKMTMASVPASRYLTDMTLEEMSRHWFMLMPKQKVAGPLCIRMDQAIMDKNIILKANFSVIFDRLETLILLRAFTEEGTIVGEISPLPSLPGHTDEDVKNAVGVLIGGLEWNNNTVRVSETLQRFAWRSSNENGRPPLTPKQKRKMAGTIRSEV

## CC(C)(C)N(Cc1ccccc1)C(=O)COC(=O)CCc1c[nH]c2ccccc12
[1]
  AC50: 25.9 µM (active)

## CC1CN=C(/C=C(\O)c2ccc(Br)cc2)C(=O)N1 (stereo not given)
[2]
  EC50: > 350 µM (not active)
[3]
  EC50: 11.6 µM (inconclusive)
[4]
  EC50: 35.6 µM (active)

## Cc1cccc(N(Cc2ccccc2)C(=O)CSC(C)C(=O)Nc2cc(C)on2)c1 (stereo not given)
[5]
  EC50: 2.11 µM (active)

## CC1CCCN(C(=O)c2ccc3c(c2NCCO)C(=O)c2ccccc2C3=O)C1 (stereo not given)
[6]
  IC50: 22 µM (active)

## O=C(Cc1ccc(F)cc1)N1CCN=C1SCc1ccc([N+](=O)[O-])cc1
[7]
  IC50: > 66 µM (inactive)
[8]
  IC50: > 66 µM (inactive)

## CCOc1ccc(CN2CCN(C(=O)c3ccccc3)CC2)cc1
[5]
  EC50: 6.68 µM (active)

## Cc1ccc2cc(CN(CCN3CCOCC3)C(=O)NCc3ccccc3)c(O)nc2c1C
[5]
  EC50: 4.22 µM (active)

## N#C/C(=N\Nc1ccc(S(=O)(=O)N2CCCCCC2)cc1)C(N)=S
[9]
  EC50: 22.7 µM (active)
[10]
  EC50: > 150 µM (not active)
[11]
  EC50: > 150 µM (not active)
[7]
  IC50: > 66 µM (inactive)
[8]
  IC50: > 66 µM (inactive)

## O=C(C1CCC1)N1CC(=O)N2[C@H](CO)[C@@H](c3ccc(C#CCc4ccccc4)cc3)[C@@H]2C1
[12]
  AC50: 4.27 µM (active)

## Cn1nnc(NC(=S)NC(=O)c2cccc3c(Br)cccc23)n1
[7]
  IC50: > 66 µM (inactive)
[8]
  IC50: > 66 µM (inactive)

## OC(COc1ccccc1)CN1C2=NCCCN2c2ccccc21 (stereo not given)
[5]
  EC50: 13.3 µM (active)

## O=C(NCCCN1CCOCC1)c1ccc(NC(=O)C2COc3ccccc3O2)cc1 (stereo not given)
[5]
  EC50: 15 µM (active)

## O=c1c(=Nc2ccccc2O)c(=O)c2ccccc12
[13]
  IC50: 3.81 µM (active)

## O=C(CCc1ccccc1)NNC(=O)c1ccccn1
[14]
  IC50: > 20 µM (inactive)

## CCOC(=O)C1CCN(C(=O)COC(=O)CSc2ccc([N+](=O)[O-])cc2)CC1
[7]
  IC50: > 66 µM (inactive)
[8]
  IC50: > 66 µM (inactive)

## CC(C)n1c(NCc2c[nH]c3ccccc23)nc2ccccc21
[5]
  EC50: 1.68 µM (active)

## COc1cc2ccccc2cc1C(=O)NC(=S)Nc1cccc(C(=O)O)c1
[7]
  IC50: > 66 µM (inactive)
[8]
  IC50: > 66 µM (inactive)

## O=C(NC(=S)N1CCCC1)c1ccccc1F
[7]
  IC50: > 66 µM (inactive)
[8]
  IC50: > 66 µM (inactive)

## CCC(SCC(=O)OC)C(=O)Nc1nnc(C(C)C)s1 (stereo not given)
[7]
  IC50: > 66 µM (inactive)
[8]
  IC50: > 66 µM (inactive)

## CCOc1ccc2c(c1)c1nnc(SCC3CCCO3)nc1n2C (stereo not given)
[15]
  CC50: > 50 µM (active)
[2]
  EC50: > 350 µM (not active)
[4]
  EC50: 52.4 µM (active)

## Cc1cccc(C(=O)Nc2nnc(-c3cccnc3)o2)c1
[13]
  IC50: 9.52 µM (active)

## CO[C@@H]1CN(C)C(=O)c2cc(NC(=O)C3CC3)ccc2OC[C@H](C)N(CC2CCCC2)C[C@H]1C
[12]
  AC50: 4.45 µM (active)

## COc1ccc(Cl)cc1/C=N/NC(=O)c1c(-c2ccccc2)noc1C
[14]
  IC50: > 20 µM (inactive)

## O=C1/C(=C\c2ccc(-c3ccccc3[N+](=O)[O-])o2)C(c2ccccc2)=NN1c1ccccc1
[6]
  IC50: 21.3 µM (active)

## CCOc1ccc(NC(=S)NC(=O)c2c(Cl)c(C)nn2C)c([N+](=O)[O-])c1
[7]
  IC50: > 66 µM (inactive)
[8]
  IC50: > 66 µM (inactive)

## CC(C)(C)[S@@+]([O-])N1Cc2cc(C(=O)NC3CCC3)nc(-c3cccc(Br)c3)c2[C@H]1CCO
[12]
  AC50: 5.58 µM (active)

## COc1ccc(N2CCN(CCCNC(=O)c3cc4sccc4n3C)CC2)cc1
[6]
  IC50: 39.4 µM (active)

## COCCN=C(S)N(CCO)Cc1cc2cc3c(cc2nc1O)OCCO3
[7]
  IC50: > 66 µM (inactive)
[8]
  IC50: > 66 µM (inactive)

## CN(C)C(=O)c1cccc(-c2ccc3c(c2)[C@H]2[C@H](CCN2C(=O)C2CC2)[C@@H](CO)N3)c1
[12]
  AC50: 17.5 µM (active)

## O/C(=C(\C([S-])=Nc1cccc2ccccc12)[n+]1ccccc1)c1cccs1
[2]
  EC50: > 350 µM (not active)
[4]
  EC50: > 350 µM (not active)

## CCC(=O)N1CC2(CCN(Cc3ccc(Cl)cc3)CC2)c2c(n(C)c3cc(OC)ccc23)[C@@H]1CO
[12]
  AC50: 7.31 µM (active)

## O=C(COC(=O)c1ccccc1Cl)NCCC1=CCCCC1
[13]
  IC50: 29.9 µM (active)

## CN(C)/C=N/C(=O)c1cn(-c2ccc(F)cc2)c(=O)c2ccccc12
[2]
  EC50: > 350 µM (not active)
[4]
  EC50: > 350 µM (not active)

## CCC(=O)N1CC2(C1)CN(Cc1cc(F)ccc1F)[C@H](CO)c1[nH]c3cc(OC)ccc3c12
[12]
  AC50: 5.73 µM (active)

## CCC(=O)NC(=S)NNC(=O)c1ccc([N+](=O)[O-])cc1
[14]
  IC50: > 20 µM (inactive)

## CC(C)C1=Nc2cccc3cccc(c23)N1
[5]
  EC50: 2.37 µM (active)
[16]
  IC50: 26.3 µM (active)

Reference: ChEMBL document CHEMBL1201862, “PubChem BioAssay data set” (2004)
